The series is described as follows: Bulk density / tapped density (tapped density tester ETD-1020). The class given is physicochemical. An excerpt: The bulk density used tapped density tester dual-platform ETD-1020 (Electrolab). System specifications. Speed: nominal rate of 300 taps per minute, Accuracy: Actual setting ±1 tap, Drop height: 14±2 mm. Platform rotation: 5-15 rotations/minute.

Experimental findings from patent publication US20100274050A1, “SOLID MILNACIPRAN AND PROCESS FOR THE PREPARATION OF THE SAME” (Glenmark Generics Limited, priority 2009, published 2010) are described below.

Counter-ions that a name gives are not always drawn.

Regarding `CCN(CC)C(=O)C1(c2ccccc2)CC1CN` (stereo not shown) [milnacipran hydrochloride, Milnacipran hydrochloride], the Tapped density result is reported as “Tapped density = 0.43 g/ml”.
